Measurements as given in PMC2359919, “Molecular targeting of retinoic acid metabolism in neuroblastoma: the role of the CYP26 inhibitor R116010 in vitro and in vivo” (British Journal of Cancer, 2007).

System: CYP26B1
Test: CYP26B1 mRNA expression in neuroblastoma cells, real-time PCR
Type: cell-based, human
Details: 24 h
Experimental: SH-SY5Y, SH-EP (N- and S-type cells respectively derived from the parental line SK-N-SH), LAN6, IMR-32, NGP and GIMEN neuroblastoma cell lines were cultured routinely in RPMI 1640 medium containing fetal calf serum (10%) and L-glutamine (2 mM). Cells were grown at 37°C in a humidified incubator containing 5% CO2.
13-cis-Retinoic acid and ATRA were dissolved in DMSO and diluted in cell culture medium to obtain final concentrations of 0.1–10 μM. The final concentration of DMSO in all cases was <0.2%. All experiments were performed in dim light and tubes containing retinoids were wrapped in aluminium foil.
CYP26 short hairpin RNAs (shRNAs) were generated using the siSTRIKE U6 Hairpin Cloning System (Promega, Southampton, UK). The CYP26A1, B1 and Ctrl siRNA sequences were designed using Promega software. The cDNA target sequences were CYP26A1 5′-gcgcatcgagcagaacatt; CYP26B1 5′-gtcgcggagggagaagtat; and Ctrl 5′-gccccgcaattgagaaatg. Sense and antisense strands were annealed and ligated into the linearised psiSTRIKE Neomycin Vector. SH-SY5Y cells were transfected with psi-CYP26A1 or psi-CYP26B1 either singly or in combination, or with psi-Ctrl, in six-well plates (1 μg each) or 75 cm^2 flasks (8.9 μg each) using FuGENE 6 reagent (Roche, Lewes, UK) according to the manufacturer's instructions. After a 6 h transfection, cells were treated with ATRA for 40 h and harvested for RNA isolation and HPLC analysis.
RNA was reverse-transcribed using Promega's Reverse Transcription System according to the manufacturer's instructions, using random hexamer primers. […] As internal standard, β-actin was measured simultaneously using the endogenous control assay provided by Applied Biosystems. […] Standard curves were generated from serial dilutions of cDNA prepared from cells treated with ATRA (1 μM) and the data were analysed using the GeneAmp Sequence Detection System software. CYP26C1 expression was analysed as described previously ([Taimi et al, 2004]).

| Structure (SMILES) | Effect on CYP26B1 expression, R116010 alone (SH-SY5Y cells, R116010 1 μM alone) | Effect on CYP26B1 expression, co-incubation with retinoid (SH-SY5Y cells, R116010 1 μM with ATRA or 13cisRA (0.01, 0.1 μM) vs retinoid alone) | CYP26B1 induction (0.1 μM retinoid, panel of neuroblastoma cell lines, relative to SH-SY5Y cells treated with 0.01 μM ATRA) |
| --- | --- | --- | --- |
| C[C@@H]([C@H](c1ccc(Nc2nc3ccccc3s2)cc1)n1ccnc1)N(C)C [R116010] | no effect | significantly increased |  |
| CC1=C(/C=C/C(C)=C/C=C/C(C)=C/C(=O)O)C(C)(C)CCC1 [ATRA, all-trans-retinoic acid] |  |  | induced in all cell lines examined, except IMR-32 |
